In patent US20060111341A1, “Use of galanthamine and the derivatives thereof in the production of medicaments” (priority 2003, published 2006) one finds IC50 data, which are given here for 56 compounds.

pIC50: −log10 of the molar value.

For one assay, the target named is Acetylcholinesterase (Homo sapiens, UniProt P22303). Description: biochemical.
Another assay concerns the target Butyrylcholinesterase (Homo sapiens, UniProt P06276). Description: biochemical.

Sequence of Butyrylcholinesterase (P06276 29-602): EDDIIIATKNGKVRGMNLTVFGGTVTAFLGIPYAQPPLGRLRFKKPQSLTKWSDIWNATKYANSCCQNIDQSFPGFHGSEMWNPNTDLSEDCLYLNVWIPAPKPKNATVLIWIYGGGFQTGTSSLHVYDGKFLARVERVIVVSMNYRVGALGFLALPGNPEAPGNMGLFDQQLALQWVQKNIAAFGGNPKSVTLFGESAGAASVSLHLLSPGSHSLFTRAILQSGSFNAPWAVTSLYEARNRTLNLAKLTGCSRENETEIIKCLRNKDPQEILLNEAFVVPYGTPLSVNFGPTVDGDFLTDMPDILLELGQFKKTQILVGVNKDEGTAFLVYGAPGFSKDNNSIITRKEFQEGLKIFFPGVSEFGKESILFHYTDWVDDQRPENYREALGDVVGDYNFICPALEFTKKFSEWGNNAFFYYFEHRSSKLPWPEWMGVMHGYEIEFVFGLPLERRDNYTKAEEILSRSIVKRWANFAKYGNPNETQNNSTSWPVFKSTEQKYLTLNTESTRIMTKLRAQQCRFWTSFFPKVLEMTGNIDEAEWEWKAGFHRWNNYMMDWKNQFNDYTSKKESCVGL
Sequence of Acetylcholinesterase (P22303 32-614): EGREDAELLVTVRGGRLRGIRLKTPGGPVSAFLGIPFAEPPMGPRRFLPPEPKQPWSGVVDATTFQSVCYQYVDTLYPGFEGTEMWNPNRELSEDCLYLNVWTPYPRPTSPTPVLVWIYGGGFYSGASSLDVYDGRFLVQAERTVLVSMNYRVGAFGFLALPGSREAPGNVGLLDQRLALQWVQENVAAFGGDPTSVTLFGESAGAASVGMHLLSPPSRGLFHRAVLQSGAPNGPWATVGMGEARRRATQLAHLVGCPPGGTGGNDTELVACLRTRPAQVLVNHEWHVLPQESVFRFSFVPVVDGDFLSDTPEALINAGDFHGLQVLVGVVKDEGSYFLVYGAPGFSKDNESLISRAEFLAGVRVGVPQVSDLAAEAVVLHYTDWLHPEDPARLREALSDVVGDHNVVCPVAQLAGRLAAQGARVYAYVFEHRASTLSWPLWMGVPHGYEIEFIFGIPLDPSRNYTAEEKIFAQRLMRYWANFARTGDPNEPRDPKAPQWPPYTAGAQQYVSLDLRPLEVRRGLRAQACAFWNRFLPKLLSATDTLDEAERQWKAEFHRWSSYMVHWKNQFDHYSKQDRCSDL

Turning to `COc1cc(C)c2c3c1OC1C[C@@H](O)C=CC31CCN(C)C2` (mixture of isomers) [Nr 63], the pIC50 (usually the negative decadic logarithm of the IC50, by convention in mol/L) is less than 4.00 against Acetylcholinesterase and 4.77 against Butyrylcholinesterase.

For `COc1cc(C)c2c3c1OC1C[C@@H](O)C=CC31CCN(CCCN1CCCCC1)C2` (mixture of isomers) [Nr 64], the pIC50 is 4.34 at Acetylcholinesterase and 6.22 at Butyrylcholinesterase.

Turning to `COc1cc(C)c2c3c1OC1C[C@@H](O)C=CC31CCN(CCN1CCOCC1)C2` (mixture of isomers) [Nr 65], the pIC50 on Acetylcholinesterase was less than 4.00; against Butyrylcholinesterase, 5.28.

Turning to `C=C(C)C[N+]1(C)CCC23C=C[C@H](O)CC2Oc2c(OC)cc(C)c(c23)C1` (mixture of isomers) [Nr 67], the pIC50 is 4.15 against Acetylcholinesterase and 5.62 at Butyrylcholinesterase.

In the case of `C#CC[N+]1(C)CCC23C=C[C@H](O)CC2Oc2c(OC)cc(C)c(c23)C1` (mixture of isomers) [Nr 68], the pIC50 was 4.11 against Acetylcholinesterase and 5.60 at Butyrylcholinesterase.

Turning to `COc1cc(C)c2c3c1OC1C[C@@H](O)C=CC31CC[N+](C)(Cc1ccccc1)C2` (mixture of isomers) [Nr 69], the pIC50 against Acetylcholinesterase was 4.33; against Butyrylcholinesterase, 6.15.

For `COc1cc(Br)c2c3c1OC1C[C@@H](O)C=CC31CCN(C(=O)NC(C)C)C2` (mixture of isomers) [Nr 70], the pIC50 is less than 4.00 on Acetylcholinesterase and 4.60 at Butyrylcholinesterase.

Take `CNC(=S)N1CCC23C=C[C@H](O)CC2Oc2c(OC)cc(Br)c(c23)C1` (mixture of isomers) [Nr 71]: the pIC50 is 4.51 at Acetylcholinesterase and 4.70 against Butyrylcholinesterase.

`COc1cc(Br)c2c3c1OC1C[C@@H](O)C=CC31CCN(CCC#N)C2` (mixture of isomers) [Nr 72]: the negative-log IC50 (pIC50) was less than 4.00 at Acetylcholinesterase and 4.37 against Butyrylcholinesterase.

As to `CNC(=S)N1CCC23C=C[C@H](O)CC2Oc2c(OC)ccc(c23)C1` (mixture of isomers) [Nr 73], the pIC50 was 4.64 at Acetylcholinesterase and 4.52 on Butyrylcholinesterase.

Take `COc1ccc2c3c1OC1C[C@@H](O)C=CC31CCN(C(=O)NC(C)C)C2` (mixture of isomers) [Nr 75]: the pIC50 was 5.38 at Acetylcholinesterase and less than 4.00 on Butyrylcholinesterase.

As to `COc1ccc2c3c1OC1C[C@@H](O)C=CC31CCN(C(=O)Nc1ccccc1)C2` (mixture of isomers) [Nr 76], the values for the pIC50 against Acetylcholinesterase and against Butyrylcholinesterase were 4.15 and less than 4.00, respectively.

Regarding `COc1ccc2c3c1OC1C[C@@H](O)C=CC31CCN(/C(=N/C#N)SC)C2` (mixture of isomers) [Nr 79], the pIC50 on Acetylcholinesterase is 4.60; against Butyrylcholinesterase, 6.27.

For `COc1ccc2c3c1OC1C[C@@H](O)C=CC31CCN(C=C(C#N)C#N)C2` (mixture of isomers) [Nr 80], the results for the pIC50 against Acetylcholinesterase and on Butyrylcholinesterase were 4.55 and less than 4.00, respectively.

In the case of `COc1ccc2c3c1OC1C[C@@H](O)C=CC31CCN(CCCO)C2` (mixture of isomers) [Nr 81], the pIC50 against Acetylcholinesterase is 5.14; at Butyrylcholinesterase, 4.68.

On to `COc1ccc2c3c1OC1C[C@@H](O)C=CC31CCN(C(=O)NC(C)(C)C)C2` (mixture of isomers) [Nr 82], for which the negative-log IC50 (pIC50) against Acetylcholinesterase was 5.32; against Butyrylcholinesterase, less than 4.00.

As to `COc1ccc2c3c1OC1C[C@@H](O)C=CC31CCN(c1ncccn1)C2` (mixture of isomers) [Nr 85], the figures for the pIC50 at Acetylcholinesterase and at Butyrylcholinesterase were 4.42 and 4.52, respectively.

With `COc1ccc2c3c1OC1C[C@@H](O)C=CC31CCN(C(=O)Nc1ccc3ccccc3c1)C2` (mixture of isomers) [Nr 88], the results for the pIC50 against Acetylcholinesterase and on Butyrylcholinesterase were 4.44 and less than 4.00, respectively.

`COc1ccc2c3c1OC1C[C@@H](O)C=CC31CCN(c1nccc(Cl)n1)C2` (mixture of isomers) [Nr 89]: the pIC50 is 4.18 against Acetylcholinesterase and less than 4.00 on Butyrylcholinesterase.

Consider `COc1ccc2c3c1OC1C[C@@H](O)C=CC31CCN(CCCN)C2` (mixture of isomers) [Nr 90], for which the negative-log IC50 (pIC50) at Acetylcholinesterase is 5.47; at Butyrylcholinesterase, 4.96.

With `C=CCNC(=S)N1CCC23C=C[C@H](O)CC2Oc2c(OC)ccc(c23)C1` (mixture of isomers) [Nr 91], the values for the pIC50 on Acetylcholinesterase and against Butyrylcholinesterase were 4.68 and less than 4.00, respectively.

`COc1ccc2c3c1OC1C[C@@H](O)C=CC31CCN(C(=O)Nc1ccc(Cl)cc1)C2` (mixture of isomers) [Nr 92]: the pIC50 is 4.62 against Acetylcholinesterase and less than 4.00 against Butyrylcholinesterase.

In the case of `COc1ccc2c3c1OC1C[C@@H](O)C=CC31CCN(c1nc(OCCCN(C)C)nc(OCCCN(C)C)n1)C2` (mixture of isomers) [Nr 94], the pIC50 at Acetylcholinesterase is 4.15; against Butyrylcholinesterase, 4.40.

With `CCN(CC)c1nc(N(CC)CC)nc(N2CCC34C=C[C@H](O)CC3Oc3c(OC)ccc(c34)C2)n1` (mixture of isomers) [Nr 95], the values for the pIC50 at Acetylcholinesterase and against Butyrylcholinesterase were 4.40 and less than 4.00, respectively.

On to `COc1ccc2c3c1OC1C[C@@H](O)C=CC31CCN(c1ccnc(OCCCN(C)C)n1)C2` (mixture of isomers) [Nr 96], for which the pIC50 is 5.13 against Acetylcholinesterase and 4.44 against Butyrylcholinesterase.

As to `CCN(CC)c1nccc(N2CCC34C=C[C@H](O)CC3Oc3c(OC)ccc(c34)C2)n1` (mixture of isomers) [Nr 97], the pIC50 is 4.60 at Acetylcholinesterase and less than 4.00 on Butyrylcholinesterase.

In the case of `COc1ccc2c3c1OC1C[C@@H](O)C=CC31CCN(CCC(=O)NC(C)(C)C)C2` (mixture of isomers) [Nr 101], the pIC50 was 4.35 at Acetylcholinesterase and 4.59 on Butyrylcholinesterase.

As to `C=C(C)C[N+]1(C)CCC23C=C[C@@H](O)CC2Oc2c(OC)cc(C)c(c23)C1` (mixture of isomers) [Nr 102], the values for the pIC50 on Acetylcholinesterase and on Butyrylcholinesterase were less than 4.00 and 4.02, respectively.

For `C#CC[N+]1(C)CCC23C=C[C@@H](O)CC2Oc2c(OC)cc(C)c(c23)C1` (mixture of isomers) [Nr 103], the pIC50 is 4.23 on Acetylcholinesterase and 4.35 against Butyrylcholinesterase.

Regarding `C=CC[N+]1(C)CCC23C=C[C@@H](O)CC2Oc2c(OC)cc(C)c(c23)C1` (mixture of isomers) [Nr 104], the pIC50 on Acetylcholinesterase was less than 4.00; on Butyrylcholinesterase, 4.28.

As to `COc1cc(C)c2c3c1OC1C[C@H](O)C=CC31CC[N+](C)(Cc1ccc(C(F)(F)F)cc1)C2` (mixture of isomers) [Nr 105], the pIC50 is 4.22 at Acetylcholinesterase and 5.27 against Butyrylcholinesterase.

`COc1cc(C)c2c3c1OC1C[C@H](O)C=CC31CC[N+](C)(Cc1ccccc1)C2` (mixture of isomers) [Nr 106]: the values for the pIC50 at Acetylcholinesterase and against Butyrylcholinesterase were less than 4.00 and 5.52, respectively.

As for `COc1cc(C)c2c3c1OC1C[C@@H](O)C=CC31CC[N+](C)(C)C2` (mixture of isomers) [Nr 107], the values for the pIC50 at Acetylcholinesterase and on Butyrylcholinesterase were less than 4.00 and 4.85, respectively.

For the compound `COC(=O)/C=C(\C(=O)OC)N1CCC23C=C[C@H](O)CC2Oc2c(OC)ccc(c23)C1` (mixture of isomers) [Nr 108], the pIC50 against Acetylcholinesterase was 3.85; on Butyrylcholinesterase, 4.10.

With `COc1ccc2c3c1OC1C[C@@H](O)C=CC31CCN(CCC(=O)NC(C)C)C2` (mixture of isomers) [Nr 109], the pIC50 against Acetylcholinesterase is 4.26; against Butyrylcholinesterase it was 4.44.

With `CCOC(=O)/C=C/N1CCC23C=C[C@H](O)CC2Oc2c(OC)ccc(c23)C1` (mixture of isomers) [Nr 110], the figures for the pIC50 at Acetylcholinesterase and at Butyrylcholinesterase were 4.30 and less than 4.00, respectively.

Take `COc1ccc2c3c1OC1C[C@@H](O)C=CC31CCN(C(=O)N[C@H](C)c1ccccc1)C2` (mixture of isomers) [Nr 112]: the pIC50 on Acetylcholinesterase is 4.52; against Butyrylcholinesterase, less than 4.00.

With `COc1ccc2c3c1OC1C[C@@H](O)C=CC31CCC(N)C2` (mixture of isomers) [Nr 140], the values for the pIC50 against Acetylcholinesterase and on Butyrylcholinesterase were 5.28 and less than 4.00, respectively.

Consider `COc1cc(C)c2c3c1OC1C[C@@H](O)C=CC31CCN(C)C2C#N` (mixture of isomers) [Nr 145], for which the pIC50 against Acetylcholinesterase was 4.10; against Butyrylcholinesterase, less than 4.00.

In the case of `CCCCNC(=O)O[C@H]1C=C[C@@]23CCN(C)Cc4ccc(OC)c(c42)O[C@H]3C1` [Nr 1], the pIC50 against Acetylcholinesterase is less than 4.00; against Butyrylcholinesterase it was 5.32.

As for `COc1ccc2c3c1O[C@@H]1C[C@H](O)C=C[C@]31CC[N+](C)(CCN1CCOCC1)C2` (stereo partly shown) [Nr 12], the figures for the pIC50 against Acetylcholinesterase and against Butyrylcholinesterase were 4.24 and 4.89, respectively.

Take `C#CC[N+]1(C)CC[C@@]23C=C[C@H](O)C[C@@H]2Oc2c(OC)ccc(c23)C1` (stereo partly shown) [Nr 16]: the pIC50 at Acetylcholinesterase is 5.85; on Butyrylcholinesterase, 5.77.

In the case of `COc1cc([N+](=O)[O-])c2c3c1O[C@H]1C[C@@H](O)C=C[C@@]31CCN(C)C2` [Nr 45], the pIC50 against Acetylcholinesterase is less than 4.00; at Butyrylcholinesterase, 4.60.

Regarding `COc1cc(N)c2c3c1O[C@H]1C[C@@H](O)C=C[C@@]31CCN(C)C2` [Nr 48], the pIC50 was 4.11 at Acetylcholinesterase and 5.31 at Butyrylcholinesterase.

Regarding `COc1ccc2c3c1O[C@H]1C[C@@H](O)C=C[C@@]31CC[N+](C)(CC1CC1)C2` (stereo partly shown) [Nr 53], the pIC50 at Acetylcholinesterase is 5.92; against Butyrylcholinesterase, 5.44.

On to `COc1ccc2c3c1O[C@H]1C[C@@H](O)C=C[C@@]31CC[N+](C)(CC=C(C)C)C2` (stereo partly shown) [Nr 54], for which the pIC50 was 6.70 against Acetylcholinesterase and 6.68 on Butyrylcholinesterase.

`COc1cc(N(C)C)c2c3c1O[C@H]1C[C@@H](O)C=C[C@@]31CCN(C)C2` [Nr 56]: the pIC50 was less than 4.00 at Acetylcholinesterase and 6.33 on Butyrylcholinesterase.

For the compound `COc1ccc2c3c1O[C@H]1C[C@@H](O)C=C[C@@]31CC[N+](C)(Cc1ccc(Br)cc1)C2` (stereo partly shown) [Nr 58], the pIC50 was 6.70 against Acetylcholinesterase and 6.22 at Butyrylcholinesterase.

Consider `COc1ccc2c3c1O[C@H]1C[C@H](N)C=C[C@@]31CCN(C)C2` [Nr 84], for which the pIC50 against Acetylcholinesterase is 4.40; against Butyrylcholinesterase, 5.22.

On to `COc1ccc2c3c1O[C@H]1C[C@@H](O)C=C[C@@]31CCN(C(=O)Nc1ccccc1C(F)(F)F)C2` [Nr 111], for which the negative-log IC50 (pIC50) was 4.52 on Acetylcholinesterase and less than 4.00 at Butyrylcholinesterase.

In the case of `COc1ccc2c3c1O[C@H]1C[C@@H](O)C=C[C@@]31CCN(C(N)=O)C2` [Nr 113], the pIC50 against Acetylcholinesterase is 4.36; against Butyrylcholinesterase, less than 4.00.

Take `COc1ccc2c3c1O[C@H]1C[C@@H](O)C=C[C@@]31CCN(C(=O)NC(C)C)C2` [Nr 114]: the pIC50 at Acetylcholinesterase was 5.59; at Butyrylcholinesterase, 5.00.

On to `COc1ccc2c3c1O[C@H]1C[C@@H](O)C=C[C@@]31CCN(C(=O)NC(C)(C)C)C2` [Nr 115], for which the pIC50 is 5.60 against Acetylcholinesterase and 5.15 at Butyrylcholinesterase.

In the case of `COc1ccc2c3c1O[C@H]1C[C@@H](O)C=C[C@@]31CCN(/C(=N/C#N)SC)C2` [Nr 117], the pIC50 against Acetylcholinesterase is 5.17; against Butyrylcholinesterase it was 4.52.

With `CN1CC[C@@]23C=C[C@H](O)C[C@@H]2Oc2c(Oc4ccccc4)ccc(c23)C1` [Nr 118], the figures for the pIC50 on Acetylcholinesterase and on Butyrylcholinesterase were 4.68 and 5.47, respectively.

In the case of `COc1ccc2c3c1O[C@H]1C[C@@H](O)C=C[C@@]31CCN(CCC(=O)O)C2` [Nr 120], the pIC50 against Acetylcholinesterase is 4.38; at Butyrylcholinesterase, 4.40.
